31 molecules from US5463071A, “5-membered heterocyclic compounds, processes for preparing them and pharmaceutical compositions containing these compounds” (Dr. Karl Thomae GmbH, priority 1991, dated 1995) can be followed below.

One assay concerns human thrombocytes. Description: Fibrinogen binding to human thrombocytes (125I fibrinogen, gel-filtered platelets). The conditions noted are these: ADP, 20 minutes at ambient temperature, read-out: Fibrinogen-binding test IC50. The method, then:
1. Fibrinogen binding to human thrombocytes The blood obtained by puncturing an antecubital vein is anticoagulated with trisodium citrate (final concentration: 13 mM) and centrifuged for 10 minutes at 170×g. The supernatant platelet-rich plasma is poured onto a Sepharose 2B column (Pharmacia) and eluted with a solution of 90 mM common salt, 14 mM trisodium citrate, 5 mM glucose and 50 mM Tris(hydroxymethyl)aminomethane, adjusted to pH 7.4. The gel-filtered platelets (GFP) appearing before the plasma proteins are used for the binding experiments. 50 μl of a 60 mM calcium chloride solution, 50 μl of a 0.6 mM adenosine diphosphate solution, 100 μl of substance solution or solvent and 50 μl of fibrinogen solution (containing 3 μg of ^125 I fibrinogen) are added to 750 μl of GFP and incubated for 20 minutes at ambient temperature. The non-specific binding is determined in the presence of 3 mg/ml of cold fibrinogen. 900 μof the incubated material are carefully pipetted onto 250 μof silicon oil (AP 38: AR 20, 1:2 v/v, Wacker Chemie) in Eppendorf tubes and centrifuged for 2 minutes at 10,000×g. The aqueous supernatant and part of the oil are drawn off, the tips of the tubes are cut off together with the platelet pellet and the quantity of bound fibrinogen is determined in a gamma counter. The concentration of substance which brings about a 50% inhibition in fibrinogen binding is determined from a series of concentrations and is given as the IC50 value.

In assay [1] the test system is collagen-induced platelet aggregation in platelet-rich plasma. The assay is described as follows: Antithrombotic activity: inhibition of collagen-induced thrombocyte (platelet) aggregation, Born and Cross method. Format: cell-based, healthy volunteers (human). The conditions noted are these: Homo sapiens, 10 minutes preincubation at 37° C. The method, then: 2. Antithrombotic activity Method The thrombocyte aggregation is measured using the Born and Cross method (J. Physiol. 170: 397 (1964)) in platelet-rich plasma taken from healthy volunteers. To inhibit coagulation the blood is mixed with 3.14% sodium citrate in a ratio by volume of 1:10. Collagen-induced aggregation The pattern of the decrease in optical density of the platelet suspension is photometrically measured and recorded after the addition of the aggregation-triggering substance. The rate of aggregation is concluded from the angle of inclination of the density curve. The point on the curve where there is maximum light transmittance is used to calculate the optical density. The amount of collagen used is as small as possible but sufficient to produce an irreversible reaction curve. Standard commercial collagen produced by Hormonchemie of Munich is used. Before the addition of the collagen the plasma is incubated for 10 minutes with the substance at 37° C. From the measurements obtained an EC50 is determined graphically, indicating a 50% change in the optical density in terms of the inhibition of aggregation.

Structures can show the parent of a compound that is named as a salt.

The term IC50 denotes the midpoint of a concentration-inhibition curve. With `COC(=O)CCc1ccc(-c2nc(-c3ccc(C(=N)NC(=O)OC)cc3)c[nH]2)cc1` [4(2), 4-(4-methoxycarbonylamidino-phenyl)-2-[4-(2-methoxycarbonyl-ethyl)-phenyl]-imidazole], the IC50 in the assay on human thrombocytes came out at 1800 nM.

As a reminder, the EC50 is the concentration giving half of the maximal effect. A low value points to greater potency. In assay [1], `N=C(N)c1ccc(-c2c[nH]c(-c3ccc(CCC(=O)O)cc3)n2)cc1` [1(7), 4-(4-amidino-phenyl)-2-[4-(2-carboxy-ethyl)-phenyl]-imidazole] displayed a half-maximal effective concentration (EC50) of 580 nM. Moreover, the IC50 in the assay on human thrombocytes is 210 nM.

On to `N=C(N)c1ccc(-c2nnc(-c3ccc(CCC(=O)O)cc3)o2)cc1` [1(9), 2-(4-amidino-phenyl)-5-[4-(2-carboxy-ethyl)-phenyl]-1,3,4-oxadiazole], for which the EC50 in assay [1] was found to be 8500 nM. Further, the IC50 in the assay with human thrombocytes amounted to 4200 nM.

In assay [1], `COC(=O)CCc1nnc(-c2ccc(-c3ccc(C(=N)N)cc3)cc2)s1` [2(20), 2-(4-amidino-4'-biphenylyl)-5-(2-methoxycarbonyl-ethyl)-1,3,4-thiadiazole] gave an EC50 of 280 nM. The IC50 in the assay with human thrombocytes was 4900 nM.

In assay [1], `COC(=O)c1cc(CCC(=O)O)oc1-c1ccc(-c2ccc(C(=N)N)cc2)cc1` [1(127), 2-(4-amidino-4'-biphenyl)-5-(2-carboxy-ethyl)-3-methoxycarbonyl-furan] gave an EC50 of 14000 nM. Moreover, in the assay with human thrombocytes, the IC50 was 2500 nM.

In assay [1], `COC(=O)CCn1nnc(-c2ccc(-c3ccc(C(=N)N)cc3)cc2)n1` [2(4), 5-(4-amidino-4'-biphenylyl)-2-(2-methoxycarbonyl-ethyl)-tetrazole-hydrochloride] returned an EC50 of 370 nM. Further, the IC50 in the assay on human thrombocytes was 490 nM.

For `N=C(N)c1ccc(-c2nnn(-c3ccc(CCC(=O)O)cc3)n2)cc1` [1(3), 5-(4-amidino-phenyl)-2-[4-(2-carboxy-ethyl)-phenyl]-tetrazole], in assay [1], the midpoint of the response, the EC50, lay at 11000 nM. For the same molecule, the IC50 with human thrombocytes worked out at 220 nM.

In turn, `COC(=O)CCc1ccc(-c2nc(-c3ccc(C(=N)N)cc3)n[nH]2)cc1` [2(8), 3-(4-amidino-phenyl)-5-[4-(2-methoxycarbonyl-ethyl)-phenyl]-1,2,4-triazole] came in with an EC50 in assay [1] of 6400 nM. The IC50 with human thrombocytes came to 44000 nM.

`N=C(N)c1ccc(-c2ccc(-c3n[nH]c(SCC(=O)O)n3)cc2)cc1` [1(39), 3-(4-amidino-4'-biphenylyl)-5-carboxymethylthio-1,2,4-triazole] came in with an EC50 in assay [1] of 3700 nM. Besides, the IC50 in the assay on human thrombocytes stood at 39 nM.

Consider `Cn1cc(-c2ccc(C(=N)N)cc2)nc1-c1ccc(CCC(=O)O)cc1` [1(6), 4-(4-amidino-phenyl)-2-[4-(2-carboxy-ethyl)-phenyl]-1-methyl-imidazole], for which the EC50 in assay [1] was found to be 90 nM. For the same molecule, in the assay with human thrombocytes, the IC50 is 25 nM.

Turning to `COC(=O)CCc1cn(-c2ccc(-c3ccc(C(=N)N)cc3)nn2)c2ccccc12` [2(37), 1-[6-(4-amidino-phenyl)-3-pyridazinyl]-3-(2-methoxycarbonyl-ethyl)-indole], in assay [1], the EC50 amounted to 6100 nM. The IC50 in the assay on human thrombocytes stood at 6200 nM.

In turn, `COC(=O)CSc1nc(-c2ccc(-c3ccc(C(=N)N)cc3)cc2)n[nH]1` [2(39), 3-(4-amidino-4'-biphenylyl)-5-methoxycarbonyl-methylthio-1,2,4-triazole] came in with an EC50 in assay [1] of 5400 nM.

With `N=C(N)c1ccc(-c2ccc(-n3cnc(CC(C(=O)O)N(Cc4ccccc4)Cc4ccccc4)c3)nn2)cc1` (stereo not drawn) [1(35), 1-[6-(4-amidino-phenyl)-3-pyridazinyl]-4-(2-carboxy-2-dibenzylamino-ethyl)-imidazole], the half-maximal effective concentration (EC50) in assay [1] is 6900 nM. Also, in the assay with human thrombocytes, the IC50 was found to be 2400 nM.

In turn, `COC(=O)C(O)Cc1cn(-c2ccc(-c3ccc(C(=N)N)cc3)nn2)cn1` (stereo not drawn) [2(1), 1-[6-(4-amidino-phenyl)-3-pyridazinyl]-4-(2-hydroxy-2-methoxycarbonyl-ethyl)-imidazole] came in with an EC50 in assay [1] of 180 nM.

Regarding `COC(=O)CCc1ccc(-c2nc(-c3ccc(C(=N)NC(=O)OC)cc3)cn2C)cc1` [4(1), 4-(4-methoxycarbonylamidino-phenyl)-2-[4-(2-methoxycarbonyl-ethyl)-phenyl]-1-methyl-imidazole], the IC50 with human thrombocytes was 1500 nM.

In turn, `COC(=O)C(N)Cc1cn(-c2ccc(-c3ccc(C(=N)N)cc3)nn2)cn1` (stereo not drawn) [2(2), 1-[6-(4-amidino-phenyl)-3-pyridazinyl]-4-(2-amino-2-methoxycarbonyl-ethyl)-imidazole-tris-trifluoroacetate] registered an EC50 in assay [1] of 350 nM. For the same molecule, the IC50 in the assay on human thrombocytes came out at 340 nM.

In turn, `COC(=O)CCc1ccc(-c2nc(-c3ccc(C(=N)N)cc3)cn2C)cc1` [2(6), 4-(4-amidino-phenyl)-2-[4-(2-methoxycarbonyl-ethyl)-phenyl]-1-methyl-imidazole-hydrochloride] displayed an EC50 in assay [1] of 210 nM. Also, the IC50 with human thrombocytes came to 4300 nM.

As for `N=C(N)c1ccc(-c2ccc(-n3cc(CCC(=O)O)c4ccccc43)nn2)cc1` [1(37), 1-[6-(4-amidino-phenyl)-3-pyridazinyl]-3-(2-carboxy-ethyl)-indole], in assay [1], the EC50 was found to be 2400 nM. The IC50 in the assay with human thrombocytes is 150 nM.

`N=C(N)c1ccc(-c2ccc(-c3oc(CCC(=O)O)cc3C(=O)O)cc2)cc1` [1(128), 2-(4-amidino-4'-biphenyl)-3-carboxy-5-(2-carboxy-ethyl)-furan] had an EC50 in assay [1] of 9000 nM. The IC50 in the assay with human thrombocytes came out at 3500 nM.

`N=C(N)c1ccc(-c2nnc(-c3ccc(CCC(=O)O)cc3)s2)cc1` [1(10), 2-(4-amidino-phenyl)-5-[4-(2-carboxy-ethyl)-phenyl]-1,3,4-thiadiazole]: the EC50 in assay [1] came to 9500 nM. Besides, the IC50 in the assay on human thrombocytes is 2000 nM.

Consider `COC(=O)CCc1cn(-c2ccc(-c3ccc(C(=N)N)cc3)nn2)cn1` [Example 2, 1-[6-(4-Amidino-phenyl)-3-pyridazinyl]-4-(2-methoxy-carbonyl-ethyl)-imidazole], for which the midpoint of the response in assay [1], the EC50, lay at 2200 nM. In the assay with human thrombocytes, the IC50 worked out at 510 nM.

`N=C(N)c1ccc(-c2ccc(-c3nnc(CCC(=O)O)s3)cc2)cc1` [1(20), 2-(4-amidino-4'-biphenylyl)-5-(2-carboxy-ethyl)-1,3,4-thiadiazole]: the concentration giving a half-maximal response (EC50) in assay [1] came to 290 nM. Further, the IC50 with human thrombocytes turned out to be 65 nM.

For the molecule `N=C(N)c1ccc(-c2ccc(-c3nnn(CCC(=O)O)n3)cc2)cc1` [1(4), 5-(4-amidino-4'-biphenylyl)-2-(2-carboxy-ethyl)-tetrazole], the EC50 in assay [1] came out at 290 nM. Further, the IC50 with human thrombocytes was 44 nM.

Regarding `COC(=O)CCc1ccc(-c2nc(-c3ccc(C(=N)N)cc3)c[nH]2)cc1` [2(7), 4-(4-amidino-phenyl)-2-[4-(2-methoxycarbonyl-ethyl)-phenyl]-imidazole-hydrochloride], the EC50 in assay [1] turned out to be 800 nM. The IC50 with human thrombocytes amounted to 17000 nM.

For the molecule `N=C(N)c1ccc(-c2ccc(-n3cnc(CC(O)C(=O)O)c3)nn2)cc1` (stereo not drawn) [1(1), 1-[-6-(4-amidinophenyl)-3-pyridazinyl]-4-(2-carboxy-2-hydroxy-ethyl)-imidazole], a half-maximal effect in assay [1] (EC50) was put at 90 nM. The IC50 with human thrombocytes is 38 nM.

Molecule `N=C(N)c1ccc(-c2n[nH]c(-c3ccc(CCC(=O)O)cc3)n2)cc1` [1(8), 3-(4-amidino-phenyl)-5-[4-(2-carboxy-ethyl)-phenyl]-1,2,4-triazole] registered an EC50 in assay [1] of 4100 nM. For the same molecule, the IC50 with human thrombocytes came to 460 nM.

Molecule `COC(=O)CCc1ccc(-n2nnc(-c3ccc(C(=N)N)cc3)n2)cc1` [2(3), 5-(4-amidino-phenyl)-2-[4-(2-methoxycarbonyl-ethyl)-phenyl]-tetrazole-hydrochloride] yielded an EC50 in assay [1] of 1600 nM. In addition, the IC50 in the assay with human thrombocytes worked out at 140 nM.

For `COC(=O)CCc1cc(C(=O)OC)c(-c2ccc(-c3ccc(C(=N)N)cc3)cc2)o1` [2(126), 2-(4-amidino-4'-biphenylyl)-3-methoxycarbonyl-5-(2-methoxycarbonyl-ethyl)-furan-hydrochloride], in assay [1], the EC50 was 22000 nM. Also, in the assay with human thrombocytes, the IC50 is 1400 nM.

The molecule `COC(=O)CCc1ccc(-c2nnc(-c3ccc(C(=N)N)cc3)s2)cc1` [2(10), 2-(4-amidino-phenyl)-5-[4-(2-methoxycarbonyl-ethyl)-phenyl]-1,3,4-thiadiazole] gave an EC50 in assay [1] of 220 nM. This counts as sub-micromolar.

Molecule `COC(=O)CCc1ccc(-c2nc(-c3ccc(C(=N)N)cc3)cs2)cc1` [2(5), 4-(4-amidino-phenyl)-2-[4-(2-methoxycarbonyl-ethyl)-phenyl]-thiazole-hydrochloride] had an EC50 in assay [1] of 7500 nM. The IC50 in the assay with human thrombocytes was found to be 3100 nM.

`NCc1ccc(-c2ccc(-n3cnc(CC(N)C(=O)O)c3)nn2)cc1` (stereo not drawn) [1(134), 4-(2-amino-2-carboxy-ethyl)-1-[6-(4-aminomethyl-phenyl)-3-pyridazinyl]-imidazole-dihydrochloride] yielded an EC50 in assay [1] of 510 nM. For the same molecule, the IC50 in the assay on human thrombocytes was determined as 460 nM.
